Data published in US8952024B2, “Herbicidal pyrimidone derivatives” (E I du Pont de Nemours and Company, priority 2009, dated 2015).

Legend:
Format in all cases: in vivo
[1] = test system: nightshade (eastern black nightshade, Solanum ptycanthum); test: Test B pre-/postemergence plant response; conditions: Preemergence; for Nightshade plant response rating: 125 g ai/ha
Method in brief: (§1)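 Compound in solvent + surfactant applied pre-em (loam/sand) or post-em (plants 2–18 cm, peat medium); greenhouse hold 13–15 days; visual 0–100 control score.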

[2] = test system: bermudagrass (Cynodon dactylon); test: Test B pre-/postemergence plant response
Method in brief: as §1

[3] = test system: morningglory (Ipomoea coccinea); test: Test B pre-/postemergence plant response
Method in brief: as §1

[4] = test system: sunflower (common oilseed sunflower, Helianthus annuus); test: Test B pre-/postemergence plant response; conditions: Preemergence; for Sunflower plant response rating: 125 g ai/ha
Method in brief: as §1

[5] = test system: galium (catchweed bedstraw, Galium aparine); test: Test B pre-/postemergence plant response; conditions: Preemergence; for Galium plant response rating: 125 g ai/ha
Method in brief: as §1

[6] = test system: umbrella sedge (Cyperus difformis); test: Test B flooded paddy test; conditions: for Plant response rating, Flood, Sedge, Umbrella: 250 g ai/ha, flooded paddy test, visual rating on 0 to 100 scale (0 no effect, 100 complete control) after 13 to 15 days; for Plant response rating, Sedge, Umbrella: Flood (flooded paddy test), 13 to 15 days
Method in brief: (§2)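 Post-flood paddy application: compounds are introduced into water 3 cm deep over the soil, reaching plants at the 2-leaf stage. The water level is maintained, and after 13–15 days under greenhouse conditions, response is judged by eye relative to controls, where 100 means complete control.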

[7] = test system: ducksalad (Heteranthera limosa); test: Test B flooded paddy test; conditions: for Plant response rating, Flood, Ducksalad: 250 g ai/ha, flooded paddy test, visual rating on 0 to 100 scale (0 no effect, 100 complete control) after 13 to 15 days; for Plant response rating, Ducksalad: Flood (flooded paddy test), 13 to 15 days
Method in brief: as §2

rice (Oryza sativa) = test: Test B flooded paddy test; conditions: for Plant response rating, Flood, Rice: 250 g ai/ha, flooded paddy test, visual rating on 0 to 100 scale (0 no effect, 100 complete control) after 13 to 15 days; for Plant response rating, Rice: Flood (flooded paddy test), 13 to 15 days
Method in brief: as §2

[8] = test system: barnyardgrass (Echinochloa crus-galli); test: Test B flooded paddy test; conditions: for Plant response rating, Flood, Barnyardgrass: 250 g ai/ha, flooded paddy test, visual rating on 0 to 100 scale (0 no effect, 100 complete control) after 13 to 15 days; for Plant response rating, Barnyardgrass: Flood (flooded paddy test), 13 to 15 days
Method in brief: as §2

[9] = test system: winter barley (Hordeum vulgare); test: Test B postemergence plant response; conditions: Postemergence; for Barley plant response rating: 250 g ai/ha, scale 0 to 100
Method in brief: (§3)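 Plants grown in peat/vermiculite medium were sprayed postemergence at 2–18 cm height (1- to 4-leaf stage). After 13–15 days in the greenhouse, response was rated visually against untreated controls on a 0–100 scale (0 no effect, 100 complete control).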

[10] = test system: canarygrass (Phalaris minor); test: Test B postemergence plant response; conditions: Postemergence; for Canarygrass plant response rating: 250 g ai/ha, scale 0 to 100
Method in brief: as §3

[11] = test system: chickweed (Stellaria media); test: Test B postemergence plant response; conditions: Postemergence; for Chickweed plant response rating: 250 g ai/ha, scale 0 to 100
Method in brief: as §3

[12] = test system: windgrass (Apera spica-venti); test: Test B postemergence plant response; conditions: Postemergence
Method in brief: as §3

[13] = test system: goosegrass (Eleusine indica); test: Test B pre-/postemergence plant response; conditions: Preemergence, 62 g ai/ha; scale 0 to 100, 0 no effect, 100 complete control
[14] = 31 g ai/ha, scale 0 to 100 (0 no effect, 100 complete control)
[15] = 62 g ai/ha, scale 0 to 100, 0 no effect, 100 complete control
[16] = 250 g ai/ha, Preemergence, 0 to 100 scale
[17] = Postemergence, 31 g ai/ha, scale 0 to 100 (0 no effect, 100 complete control)
[18] = Postemergence, 62 g ai/ha, scale 0 (no effect) to 100 (complete control), 13 to 15 days
[19] = Postemergence, 125 g ai/ha, visual rating after 13 to 15 days, scale 0 (no effect) to 100 (complete control)
[20] = Postemergence, 250 g ai/ha, scale 0 to 100
[21] = Preemergence, 31 g ai/ha, scale 0 to 100 (0 no effect, 100 complete control)
[22] = Preemergence, 62 g ai/ha, scale 0 to 100, 0 no effect, 100 complete control
[23] = Preemergence, 125 g ai/ha, 0 to 100 scale
[24] = 62 g ai/ha, scale of 0 to 100 where 0 is no effect and 100 is complete control
[25] = 62 g ai/ha, scale 0 (no effect) to 100 (complete control), 13 to 15 days
[26] = 125 g ai/ha, visual rating after 13 to 15 days, scale 0 (no effect) to 100 (complete control)
[27] = 31 g ai/ha, scale of 0 to 100 where 0 is no effect and 100 is complete control
[28] = 62 g ai/ha, scale 0 to 100, 0 is no effect, 100 is complete control
[29] = 125 g ai/ha, scale 0 to 100, 0 is no effect, 100 is complete control

`Cc1cc(F)ccc1-n1c(-c2ccccc2)ncc(C(=O)C2=C(O)CCCC2=O)c1=O` [Compound 48] was tested, and the “Plant response rating, Nightshade” value ([1]; 250 g ai/ha, 0 to 100 scale) was 100, the “Plant response rating, Nightshade” value [1, 14] was 100 and the “Plant response rating, Nightshade” value [1, 15] was 100. For the same compound, the “Nightshade plant response rating” value ([1]; 0 to 100 scale) was 100, the “Plant response rating, Bermudagrass” value [2, 16] was 100 and the “Plant response rating, Bermudagrass” value [2, 17] was 85. For the same compound, the “Plant response rating, Bermudagrass” value [2, 18] was 95, the “Plant response rating, Bermudagrass” value [2, 19] was 98 and the “Bermudagrass plant response rating” value [2, 20] was 100. The “Plant response rating, Bermudagrass” value [2, 21] was 100, the “Plant response rating, Bermudagrass” value [2, 22] was 100 and the “Bermudagrass plant response rating” value [2, 23] was 100. For the same compound, the “Plant response rating, Morningglory” value [3, 16] was 100, the “Plant response rating, Morningglory” value [3, 18] was 70 and the “Plant response rating, Morningglory” value [3, 19] was 80. For the same compound, the “Plant response rating, Morningglory” value [3, 21] was 0, the “Plant response rating, Morningglory” value [3, 22] was 100 and the “Morningglory plant response rating” value [3, 23] was 100. For the same compound, the “Plant response rating, Sunflower” value ([4]; 250 g ai/ha, 0 to 100 scale) was 80, the “Plant response rating, Sunflower” value [4, 14] was 0 and the “Sunflower plant response rating” value ([4]; 0 to 100 scale) was 80. For the same compound, the “Plant response rating, Galium” value ([5]; 250 g ai/ha, 0 to 100 scale) was 70, the “Plant response rating, Galium” value [5, 14] was 0 and the “Plant response rating, Galium” value [5, 15] was 60. For the same compound, the “Galium plant response rating” value ([5]; 0 to 100 scale) was 60, the “Plant response rating, Flood, Sedge, Umbrella” value [6] was 75 and the “Plant response rating, Sedge, Umbrella” value [6, 24] was 40. For the same compound, the “Plant response rating, Flood, Ducksalad” value [7] was 85, the “Plant response rating, Ducksalad” value [7, 24] was 0 and the “Plant response rating, Flood, Rice” value (rice (Oryza sativa)) was 65. For the same compound, the “Plant response rating, Rice” value (rice (Oryza sativa); [24]) was 0, the “Plant response rating, Flood, Barnyardgrass” value [8] was 35 and the “Plant response rating, Barnyardgrass” value [8, 24] was 0. The “Plant response rating, Barley” value [9, 14] was 5, the “Plant response rating, Barley” value [9, 25] was 5 and the “Plant response rating, Barley” value [9, 26] was 10. For the same compound, the “Barley plant response rating” value [9] was 10, the “Plant response rating, Canarygrass” value [10, 14] was 30 and the “Plant response rating, Canarygrass” value [10, 25] was 30. The “Plant response rating, Canarygrass” value [10, 26] was 45, the “Canarygrass plant response rating” value [10] was 45 and the “Plant response rating, Chickweed” value [11, 14] was 85. For the same compound, the “Plant response rating, Chickweed” value [11, 25] was 90, the “Plant response rating, Chickweed” value [11, 26] was 95 and the “Chickweed plant response rating” value [11] was 100. For the same compound, the “Plant response rating, Windgrass” value [12, 25] was 80, the “Plant response rating, Windgrass” value [12, 26] was 90 and the “Plant response rating, Goosegrass” value [13] was 100.

With “5-[(2-hydroxy-6-oxo-1-cyclohexen-1-yl)carbonyl]-3-(2-methoxyethyl)-2-(3-thienyl)-4(3H)-pyrimidinone [Compound 97]” the “Plant response rating, Nightshade” value ([1]; 250 g ai/ha, 0 to 100 scale) was 100, the “Plant response rating, Nightshade” value [1, 14] was 100 and the “Plant response rating, Nightshade” value [1, 15] was 100. For the same compound, the “Nightshade plant response rating” value ([1]; 0 to 100 scale) was 100, the “Plant response rating, Bermudagrass” value [2, 16] was 100 and the “Plant response rating, Bermudagrass” value [2, 17] was 70. The “Plant response rating, Bermudagrass” value [2, 18] was 75, the “Plant response rating, Bermudagrass” value ([2]; Postemergence, 125 g ai/ha, scale 0 to 100 (0 no effect, 100 complete control), 13 to 15 days) was 90 and the “Bermudagrass plant response rating” value [2, 20] was 95. The “Plant response rating, Bermudagrass” value [2, 21] was 45, the “Plant response rating, Bermudagrass” value [2, 22] was 80 and the “Bermudagrass plant response rating” value [2, 23] was 100. The “Plant response rating, Morningglory” value [3, 16] was 40, the “Plant response rating, Morningglory” value [3, 17] was 0 and the “Plant response rating, Morningglory” value [3, 18] was 45. The “Plant response rating, Morningglory” value [3, 19] was 45, the “Morningglory plant response rating” value [3, 20] was 55 and the “Plant response rating, Morningglory” value [3, 21] was 0. For the same compound, the “Plant response rating, Morningglory” value [3, 22] was 0, the “Morningglory plant response rating” value [3, 23] was 0 and the “Plant response rating, Sunflower” value ([4]; 250 g ai/ha, 0 to 100 scale) was 98. The “Plant response rating, Sunflower” value [4, 14] was 0, the “Plant response rating, Sunflower” value [4, 15] was 80 and the “Sunflower plant response rating” value ([4]; 0 to 100 scale) was 95. For the same compound, the “Plant response rating, Galium” value ([5]; 250 g ai/ha, 0 to 100 scale) was 85, the “Plant response rating, Galium” value [5, 14] was 0 and the “Plant response rating, Galium” value [5, 15] was 10. For the same compound, the “Galium plant response rating” value ([5]; 0 to 100 scale) was 85, the “Plant response rating, Flood, Sedge, Umbrella” value [6] was 55 and the “Plant response rating, Sedge, Umbrella” value [6, 27] was 0. The “Plant response rating, Sedge, Umbrella” value [6, 28] was 40, the “Plant response rating, Sedge, Umbrella” value [6, 29] was 55 and the “Plant response rating, Flood, Ducksalad” value [7] was 80. The “Plant response rating, Ducksalad” value [7, 27] was 0, the “Plant response rating, Ducksalad” value [7, 28] was 20 and the “Plant response rating, Ducksalad” value [7, 29] was 75. The “Plant response rating, Flood, Rice” value (rice (Oryza sativa)) was 0, the “Plant response rating, Rice” value (rice (Oryza sativa); [27]) was 0 and the “Plant response rating, Rice” value (rice (Oryza sativa); [28]) was 0. For the same compound, the “Plant response rating, Rice” value (rice (Oryza sativa); [29]) was 0, the “Plant response rating, Flood, Barnyardgrass” value [8] was 0 and the “Plant response rating, Barnyardgrass” value [8, 27] was 0. For the same compound, the “Plant response rating, Barnyardgrass” value [8, 28] was 0, the “Plant response rating, Barnyardgrass” value [8, 29] was 0 and the “Plant response rating, Barley” value [9, 14] was 0. The “Plant response rating, Barley” value [9, 25] was 0, the “Plant response rating, Barley” value ([9]; 125 g ai/ha, scale 0 to 100 (0 no effect, 100 complete control), 13 to 15 days) was 0 and the “Barley plant response rating” value [9] was 5. For the same compound, the “Plant response rating, Canarygrass” value [10, 14] was 0, the “Plant response rating, Canarygrass” value [10, 25] was 0 and the “Plant response rating, Canarygrass” value [10, 26] was 5. For the same compound, the “Canarygrass plant response rating” value [10] was 40, the “Plant response rating, Chickweed” value [11, 14] was 90 and the “Plant response rating, Chickweed” value [11, 25] was 95. The “Plant response rating, Chickweed” value [11, 26] was 95, the “Chickweed plant response rating” value [11] was 98 and the “Plant response rating, Windgrass” value [12, 14] was 5. For the same compound, the “Plant response rating, Windgrass” value [12, 25] was 10, the “Plant response rating, Windgrass” value [12, 26] was 30 and the “Windgrass plant response rating” value ([12]; 250 g ai/ha, scale 0 to 100) was 40. The “Plant response rating, Goosegrass” value [13] was 75.
